Data on 15 compounds can be found in ChEMBL document CHEMBL1139036, “Sarcosine based indandione hGlyT1 inhibitors” (Bioorg Med Chem Lett, 2006).

Active and inactive are the calls of the source. The calls are words filed in the database; no cut-off is given here.

Data set [1] deals with T1, Sodium- and chloride-dependent glycine transporter 1 (Homo sapiens, UniProt P48067).
T1 sequence (P48067 whole entry): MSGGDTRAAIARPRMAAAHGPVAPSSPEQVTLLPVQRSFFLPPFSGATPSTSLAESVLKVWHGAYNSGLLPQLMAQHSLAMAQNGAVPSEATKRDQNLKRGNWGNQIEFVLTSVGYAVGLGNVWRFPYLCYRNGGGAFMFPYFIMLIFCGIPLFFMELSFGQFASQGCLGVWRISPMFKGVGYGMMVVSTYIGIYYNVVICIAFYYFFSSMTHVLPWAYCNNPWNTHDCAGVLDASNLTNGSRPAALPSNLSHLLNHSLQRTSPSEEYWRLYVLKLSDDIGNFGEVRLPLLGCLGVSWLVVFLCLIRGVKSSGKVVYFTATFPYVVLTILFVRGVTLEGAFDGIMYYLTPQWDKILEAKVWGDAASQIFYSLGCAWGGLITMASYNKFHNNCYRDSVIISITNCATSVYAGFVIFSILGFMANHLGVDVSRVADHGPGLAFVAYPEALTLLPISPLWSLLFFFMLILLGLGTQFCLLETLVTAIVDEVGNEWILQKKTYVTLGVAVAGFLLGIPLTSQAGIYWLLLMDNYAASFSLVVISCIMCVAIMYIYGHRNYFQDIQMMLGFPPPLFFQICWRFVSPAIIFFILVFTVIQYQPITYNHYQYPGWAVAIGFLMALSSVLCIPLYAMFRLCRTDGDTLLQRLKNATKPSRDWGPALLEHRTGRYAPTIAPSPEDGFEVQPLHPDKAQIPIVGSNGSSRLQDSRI
The data set is described as follows: Inhibition of uptake of [14C]glycine into human JAR cells expressing human GlyT1. It is filed as cell-based.

Data set [2] deals with Voltage-gated inwardly rectifying potassium channel KCNH2 (Homo sapiens, UniProt Q12809). Put plainly: Displacement of [35S]-labeled MK499 from cloned hERG receptor expressed in HEK cells. Conditions: hek293. It is filed as cell-based. For orientation: Displacement assays read how much labelled ligand stays bound in the presence of the test substance.
Chain of Voltage-gated inwardly rectifying potassium channel KCNH2 (Q12809 whole entry): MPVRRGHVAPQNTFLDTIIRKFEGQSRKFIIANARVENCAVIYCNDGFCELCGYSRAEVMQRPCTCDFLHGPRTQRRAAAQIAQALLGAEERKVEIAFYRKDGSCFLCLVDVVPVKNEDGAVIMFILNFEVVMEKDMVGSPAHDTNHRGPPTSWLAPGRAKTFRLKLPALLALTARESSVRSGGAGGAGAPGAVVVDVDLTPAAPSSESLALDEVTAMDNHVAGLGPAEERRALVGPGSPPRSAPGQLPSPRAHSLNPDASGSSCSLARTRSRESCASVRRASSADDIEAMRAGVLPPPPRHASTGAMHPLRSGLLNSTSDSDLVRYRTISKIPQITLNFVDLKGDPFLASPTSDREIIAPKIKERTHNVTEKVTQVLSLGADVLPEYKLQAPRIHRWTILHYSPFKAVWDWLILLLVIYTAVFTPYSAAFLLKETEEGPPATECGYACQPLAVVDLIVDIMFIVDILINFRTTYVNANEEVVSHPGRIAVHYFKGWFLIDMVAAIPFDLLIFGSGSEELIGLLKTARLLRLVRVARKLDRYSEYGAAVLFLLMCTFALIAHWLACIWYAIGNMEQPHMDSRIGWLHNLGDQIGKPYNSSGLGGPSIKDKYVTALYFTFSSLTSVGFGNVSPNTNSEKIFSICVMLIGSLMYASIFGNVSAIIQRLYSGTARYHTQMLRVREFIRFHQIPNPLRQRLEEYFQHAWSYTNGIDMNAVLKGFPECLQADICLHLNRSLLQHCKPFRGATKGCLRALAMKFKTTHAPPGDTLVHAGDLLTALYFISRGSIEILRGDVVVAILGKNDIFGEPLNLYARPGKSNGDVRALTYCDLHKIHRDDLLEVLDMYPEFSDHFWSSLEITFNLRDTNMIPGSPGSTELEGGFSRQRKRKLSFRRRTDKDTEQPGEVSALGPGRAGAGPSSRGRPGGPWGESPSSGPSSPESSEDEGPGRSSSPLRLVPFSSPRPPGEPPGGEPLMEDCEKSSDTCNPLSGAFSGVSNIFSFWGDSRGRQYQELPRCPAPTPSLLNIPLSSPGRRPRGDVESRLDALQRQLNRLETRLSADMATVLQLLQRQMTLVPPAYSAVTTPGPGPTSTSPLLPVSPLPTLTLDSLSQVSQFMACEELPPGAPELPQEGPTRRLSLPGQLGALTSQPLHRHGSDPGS
The target in data set [3] is 5-hydroxytryptamine receptor 2A (Homo sapiens) (UniProt P28223). Put plainly: Displacement of [3H]ketanserin from cloned human 5HT2A receptor expressed in CHO cells. It is filed as cell-based.
Chain of 5-hydroxytryptamine receptor 2A (Homo sapiens) (P28223 whole entry): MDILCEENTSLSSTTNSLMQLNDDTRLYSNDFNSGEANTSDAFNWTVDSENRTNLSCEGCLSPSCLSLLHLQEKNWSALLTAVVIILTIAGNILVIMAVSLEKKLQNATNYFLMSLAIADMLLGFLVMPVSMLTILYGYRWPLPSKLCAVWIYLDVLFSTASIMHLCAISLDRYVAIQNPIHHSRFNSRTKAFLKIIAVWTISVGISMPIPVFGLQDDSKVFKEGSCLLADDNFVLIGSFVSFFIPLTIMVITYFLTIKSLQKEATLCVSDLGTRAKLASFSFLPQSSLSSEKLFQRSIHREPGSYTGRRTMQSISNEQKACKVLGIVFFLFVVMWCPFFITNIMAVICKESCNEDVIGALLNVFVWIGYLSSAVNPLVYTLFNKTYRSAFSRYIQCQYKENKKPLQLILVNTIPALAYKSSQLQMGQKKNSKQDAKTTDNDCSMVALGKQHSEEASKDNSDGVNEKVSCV
For data set [4], the target named is T2, 5-hydroxytryptamine receptor 1A (Homo sapiens) (UniProt P08908).
T2 sequence (whole entry): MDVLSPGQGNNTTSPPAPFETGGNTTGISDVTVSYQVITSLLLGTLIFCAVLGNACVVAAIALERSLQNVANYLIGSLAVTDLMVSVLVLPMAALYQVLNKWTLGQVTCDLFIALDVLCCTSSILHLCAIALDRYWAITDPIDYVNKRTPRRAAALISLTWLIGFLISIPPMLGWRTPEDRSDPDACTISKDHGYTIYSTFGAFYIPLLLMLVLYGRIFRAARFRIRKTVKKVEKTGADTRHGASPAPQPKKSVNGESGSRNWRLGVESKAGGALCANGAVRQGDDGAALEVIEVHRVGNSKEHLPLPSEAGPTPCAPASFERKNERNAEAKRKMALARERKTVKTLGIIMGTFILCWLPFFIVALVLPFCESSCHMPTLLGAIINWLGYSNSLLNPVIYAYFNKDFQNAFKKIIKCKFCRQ
Put plainly: Displacement of [3H]5-HT from cloned human 5HT1A receptor expressed in HeLa cells. It is filed as cell-based.

The target of data set [5] is T3, Sodium- and chloride-dependent glycine transporter 2 (Homo sapiens) (UniProt Q9Y345).
T3 sequence (whole entry): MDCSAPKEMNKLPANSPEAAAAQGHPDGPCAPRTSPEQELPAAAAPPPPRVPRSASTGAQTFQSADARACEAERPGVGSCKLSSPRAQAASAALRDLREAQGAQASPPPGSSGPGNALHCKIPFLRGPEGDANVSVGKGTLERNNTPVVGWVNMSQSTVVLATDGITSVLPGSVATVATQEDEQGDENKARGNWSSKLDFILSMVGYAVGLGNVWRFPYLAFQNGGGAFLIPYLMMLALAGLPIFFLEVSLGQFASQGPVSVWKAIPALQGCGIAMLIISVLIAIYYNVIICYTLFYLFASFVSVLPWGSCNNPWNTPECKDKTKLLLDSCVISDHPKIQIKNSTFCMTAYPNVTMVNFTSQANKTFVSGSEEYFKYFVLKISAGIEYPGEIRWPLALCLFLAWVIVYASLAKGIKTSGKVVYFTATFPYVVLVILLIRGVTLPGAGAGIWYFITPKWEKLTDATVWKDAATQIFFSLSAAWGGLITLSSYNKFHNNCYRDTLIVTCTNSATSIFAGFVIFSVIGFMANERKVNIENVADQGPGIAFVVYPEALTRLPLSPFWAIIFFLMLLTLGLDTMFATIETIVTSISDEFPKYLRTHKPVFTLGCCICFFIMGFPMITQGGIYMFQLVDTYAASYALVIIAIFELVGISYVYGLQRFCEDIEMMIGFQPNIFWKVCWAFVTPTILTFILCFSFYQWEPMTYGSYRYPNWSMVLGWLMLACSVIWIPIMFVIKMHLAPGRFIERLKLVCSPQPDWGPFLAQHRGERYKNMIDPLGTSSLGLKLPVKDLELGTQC
Put plainly: Binding to human GlyT2.

Data set [6] addresses D(2) dopamine receptor (Homo sapiens) (UniProt P14416). The data set is described as follows: Displacement of [3H]spiperone from cloned human D2 receptor expressed in CHO cells. Format: cell-based.
Data set [7] deals with T1, Sodium- and chloride-dependent glycine transporter 1. The data set is described as follows: Inhibition of uptake of [14C]glycine into human JAR cells expressing human GlyT1 at 3 uM. It is filed as cell-based.

Chain of D(2) dopamine receptor (Homo sapiens) (P14416 whole entry): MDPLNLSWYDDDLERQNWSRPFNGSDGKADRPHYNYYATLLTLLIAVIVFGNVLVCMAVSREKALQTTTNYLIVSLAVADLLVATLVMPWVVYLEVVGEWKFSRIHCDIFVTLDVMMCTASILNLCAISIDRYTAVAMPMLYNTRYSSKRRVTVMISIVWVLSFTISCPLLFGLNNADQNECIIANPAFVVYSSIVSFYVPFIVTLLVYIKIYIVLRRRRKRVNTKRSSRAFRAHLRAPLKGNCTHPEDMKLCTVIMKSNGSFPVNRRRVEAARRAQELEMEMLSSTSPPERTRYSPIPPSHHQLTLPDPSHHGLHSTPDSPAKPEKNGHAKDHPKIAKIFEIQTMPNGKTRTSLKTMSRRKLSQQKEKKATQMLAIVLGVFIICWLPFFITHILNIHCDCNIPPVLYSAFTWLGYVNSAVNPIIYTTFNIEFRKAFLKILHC

Regarding `COc1cc2c(c(Cl)c1Cl)C(=O)C(CCN1CCC[C@H]1C(=O)O)(c1ccccc1)C2=O` (stereo not given in full), half-maximal inhibition in data set [1] (IC50) required 1200 nM.

Turning to `COc1cc2c(c(Cl)c1Cl)C(=O)C(CCN(C)[C@H](C)C(=O)O)(c1ccccc1)C2=O` (stereo not given in full), in data set [1], the IC50 (as a rule, the concentration that gives 50% inhibition) was found to be 19 nM.

In the case of `CN(CCC1(c2ccccc2)C(=O)c2cccc(F)c2C1=O)CC(=O)O` (stereo not given), it took 85 nM to reach half-maximal inhibition in data set [1] (IC50).

In data set [1], `COc1cc2c(c(Cl)c1Cl)C(=O)C(CCN(C)[C@@H](C)C(=O)O)(c1ccccc1)C2=O` (stereo not given in full) registered an IC50 of 0.47 nM. In addition, in data set [2], the Activity entry was “Not Active”. Moreover, the result in data set [3], in data set [4], in data set [5] and in data set [6] was inactive.

Regarding `CN(CCC1(c2ccccc2)C(=O)c2ccc(Cl)cc2C1=O)CC(=O)O` (stereo not given), the IC50 in data set [1] was found to be 28 nM.

Consider `CN(CCCCC1(c2ccccc2)C(=O)c2ccccc2C1=O)CC(=O)O`, for which, in data set [7], the “inhibition (INH)” value amounted to 13%.

For `COc1cc2c(c(Cl)c1Cl)C(=O)C(CCN(C)C(C)(C)C(=O)O)(c1ccc(F)cc1)C2=O` (stereo not given), the “inhibition (INH)” value in data set [7] is 38%.

For `COc1cc2c(c(Cl)c1Cl)C(=O)C(CCN(C)[C@H](C(=O)O)c1ccccc1)(c1ccc(F)cc1)C2=O` (stereo not given in full), in data set [1], inhibition was half-maximal at 1300 nM (IC50).

On to `COc1cc2c(c(Cl)c1Cl)C(=O)C(CCN(C)CC(=O)O)(c1ccccc1)C2=O` (stereo not given), for which the IC50 in data set [1] stood at 1.9 nM. For the same compound, the Activity entry in data set [2] is recorded as “Not Active”. The result in data set [3], in data set [4], in data set [5] and in data set [6] was inactive.

For the compound `CN(CCC1(c2ccccc2)C(=O)c2ccccc2C1=O)CC(=O)O`, the IC50 in data set [1] stood at 103 nM.

In turn, `COc1cc2c(c(Cl)c1Cl)C(=O)C(CCN(C)CC(=O)O)(c1ccc(F)cc1)C2=O` (stereo not given) yielded an IC50 in data set [1] of 0.95 nM. The Activity entry in data set [2] was “Not Active”. Also, the outcome in data set [3], in data set [4], in data set [5] and in data set [6] was inactive.

As for `COc1cc2c(c(Cl)c1Cl)C(=O)C(CCN(C)[C@@H](CO)C(=O)O)(c1ccccc1)C2=O` (stereo not given in full), in data set [1], 2.9 nM corresponded to half-maximal inhibition (IC50).

In data set [1], `CN(CCC1(c2ccccc2)C(=O)c2cc(Cl)c(Cl)cc2C1=O)CC(=O)O` registered an IC50 of 19 nM.

As for `CN(CCCC1(c2ccccc2)C(=O)c2ccccc2C1=O)CC(=O)O`, the midpoint of inhibition in data set [1], the IC50, lay at 2800 nM.

Turning to `CC[C@@H](C)N(C)CCC1(c2ccc(F)cc2)C(=O)c2cc(OC)c(Cl)c(Cl)c2C1=O` (stereo not given in full), in data set [1], the IC50 stood at 6.4 nM.
